Measurements: the supplement of paper PMC10307832

Assays:
Experiment in all cases: relative viability (nuclei count vs DMSO), 5 days (fraction); higher = more cells survive
NCI-H2085 = system: NCI-H2085
How it was run: (§1)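 Five library-drug doses in √10 steps were combined with a fixed anchor-drug dose, or a single drug was given alone, by pin tool to lung cancer cell lines in 1536-well plates the day after seeding. Nuclei were stained and counted after 5 days. Relative viability is the nuclei count in treated wells over that in vehicle wells, taken as the median of duplicate plates.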

NCI-H2023 = system: NCI-H2023
How it was run: as §1

NCI-H3122 = system: NCI-H3122
How it was run: as §1

NCI-H520 = system: NCI-H520
How it was run: as §1

EPLC-272H = system: EPLC-272H
How it was run: as §1

NCI-H1650 = system: NCI-H1650
How it was run: as §1

COR-L23 = system: COR-L23
How it was run: as §1

HCC-44 = system: HCC-44
How it was run: as §1

NCI-H2170 = system: NCI-H2170
How it was run: as §1

EKVX = system: EKVX
How it was run: as §1

NCI-H1734 = system: NCI-H1734
How it was run: as §1

ABC-1 = system: ABC-1
How it was run: as §1

NCI-H2347 = system: NCI-H2347
How it was run: as §1

RERF-LC-KJ = system: RERF-LC-KJ
How it was run: as §1

201T = system: 201T
How it was run: as §1

PC-14 = system: PC-14
How it was run: as §1

NCI-H2405 = system: NCI-H2405
How it was run: as §1

NCI-H1993 = system: NCI-H1993
How it was run: as §1

NCI-H1563 = system: NCI-H1563
How it was run: as §1

NCI-H647 = system: NCI-H647
How it was run: as §1

LOU-NH91 = system: LOU-NH91
How it was run: as §1

NCI-H1793 = system: NCI-H1793
How it was run: as §1

With `Clc1ccc(Nc2nnc(Cc3ccncc3)c3ccccc23)cc1` [Vatalanib] + CS(=O)(=O)CCNCc1ccc(-c2ccc3ncnc(Nc4ccc(OCc5cccc(F)c5)c(Cl)c4)c3c2)o1 [Lapatinib] (partner 2 µM) the relative viability (NCI-H2085; first compound 0.04 µM) was 0.818, the relative viability (NCI-H2085; first compound 0.1265 µM) was 0.736 and the relative viability (NCI-H2085; first compound 0.4 µM) was 0.891. For the same compound, the relative viability (NCI-H2085; first compound 1.265 µM) was 0.701, the relative viability (NCI-H2085; first compound 4 µM) was 0.723 and the relative viability (NCI-H2023; first compound 0.04 µM) was 0.749. The relative viability (NCI-H2023; first compound 0.1265 µM) was 0.725, the relative viability (NCI-H2023; first compound 0.4 µM) was 1.05 and the relative viability (NCI-H2023; first compound 1.265 µM) was 0.681. The relative viability (NCI-H2023; first compound 4 µM) was 0.736, the relative viability (NCI-H3122; first compound 0.04 µM) was 1.01 and the relative viability (NCI-H3122; first compound 0.1265 µM) was 1.01. For the same compound, the relative viability (NCI-H3122; first compound 0.4 µM) was 1.01, the relative viability (NCI-H3122; first compound 1.265 µM) was 0.977 and the relative viability (NCI-H3122; first compound 4 µM) was 0.97. For the same compound, the relative viability (NCI-H520; first compound 0.04 µM) was 0.94, the relative viability (NCI-H520; first compound 0.1265 µM) was 0.711 and the relative viability (NCI-H520; first compound 0.4 µM) was 0.891. It also gave a relative viability (NCI-H520; first compound 1.265 µM) of 0.741, a relative viability (NCI-H520; first compound 4 µM) of 0.82 and a relative viability (EPLC-272H; first compound 0.04 µM) of 0.931. It also gave a relative viability (EPLC-272H; first compound 0.1265 µM) of 0.9, a relative viability (EPLC-272H; first compound 0.4 µM) of 0.23 and a relative viability (EPLC-272H; first compound 1.265 µM) of 0.985. It also gave a relative viability (EPLC-272H; first compound 4 µM) of 1.01, a relative viability (NCI-H1650; first compound 0.04 µM) of 0.799 and a relative viability (NCI-H1650; first compound 0.1265 µM) of 0.644. It also gave a relative viability (NCI-H1650; first compound 0.4 µM) of 0.959, a relative viability (NCI-H1650; first compound 1.265 µM) of 0.752 and a relative viability (NCI-H1650; first compound 4 µM) of 0.63. It also gave a relative viability (COR-L23; first compound 0.04 µM) of 0.848, a relative viability (COR-L23; first compound 0.1265 µM) of 0.753 and a relative viability (COR-L23; first compound 0.4 µM) of 1.01. For the same compound, the relative viability (COR-L23; first compound 1.265 µM) was 1.07, the relative viability (COR-L23; first compound 4 µM) was 0.868 and the relative viability (HCC-44; first compound 0.04 µM) was 1.01. For the same compound, the relative viability (HCC-44; first compound 0.1265 µM) was 0.941, the relative viability (HCC-44; first compound 0.4 µM) was 1.02 and the relative viability (HCC-44; first compound 1.265 µM) was 0.986. For the same compound, the relative viability (HCC-44; first compound 4 µM) was 0.986, the relative viability (NCI-H2170; first compound 0.04 µM) was 0.261 and the relative viability (NCI-H2170; first compound 0.1265 µM) was 0.268. It also gave a relative viability (NCI-H2170; first compound 0.4 µM) of 0.286, a relative viability (NCI-H2170; first compound 1.265 µM) of 0.261 and a relative viability (NCI-H2170; first compound 4 µM) of 0.264. The relative viability (EKVX; first compound 0.04 µM) was 0.195, the relative viability (EKVX; first compound 0.1265 µM) was 0.238 and the relative viability (EKVX; first compound 0.4 µM) was 0.547. It also gave a relative viability (EKVX; first compound 1.265 µM) of 0.186, a relative viability (EKVX; first compound 4 µM) of 0.216 and a relative viability (NCI-H1734; first compound 0.04 µM) of 0.919. The relative viability (NCI-H1734; first compound 0.1265 µM) was 1.02, the relative viability (NCI-H1734; first compound 0.4 µM) was 1.11 and the relative viability (NCI-H1734; first compound 1.265 µM) was 1.06. It also gave a relative viability (NCI-H1734; first compound 4 µM) of 1.09, a relative viability (ABC-1; first compound 0.04 µM) of 1.33 and a relative viability (ABC-1; first compound 0.1265 µM) of 0.931. For the same compound, the relative viability (ABC-1; first compound 0.4 µM) was 1.16, the relative viability (ABC-1; first compound 1.265 µM) was 1.23 and the relative viability (ABC-1; first compound 4 µM) was 1.05. The relative viability (NCI-H2347; first compound 0.04 µM) was 1.01, the relative viability (NCI-H2347; first compound 0.1265 µM) was 0.858 and the relative viability (NCI-H2347; first compound 0.4 µM) was 0.931. It also gave a relative viability (NCI-H2347; first compound 1.265 µM) of 0.907, a relative viability (NCI-H2347; first compound 4 µM) of 0.833 and a relative viability (RERF-LC-KJ; first compound 0.04 µM) of 0.812. The relative viability (RERF-LC-KJ; first compound 0.1265 µM) was 0.842, the relative viability (RERF-LC-KJ; first compound 0.4 µM) was 0.854 and the relative viability (RERF-LC-KJ; first compound 1.265 µM) was 0.775. For the same compound, the relative viability (RERF-LC-KJ; first compound 4 µM) was 0.698, the relative viability (201T; first compound 0.04 µM) was 1.02 and the relative viability (201T; first compound 0.1265 µM) was 0.989. For the same compound, the relative viability (201T; first compound 0.4 µM) was 1.04, the relative viability (201T; first compound 1.265 µM) was 1.05 and the relative viability (201T; first compound 4 µM) was 1.07. It also gave a relative viability (PC-14; first compound 0.04 µM) of 0.377, a relative viability (PC-14; first compound 0.1265 µM) of 0.306 and a relative viability (PC-14; first compound 0.4 µM) of 0.334. It also gave a relative viability (PC-14; first compound 1.265 µM) of 0.315, a relative viability (PC-14; first compound 4 µM) of 0.288 and a relative viability (NCI-H2405; first compound 0.04 µM) of 1.04. The relative viability (NCI-H2405; first compound 0.1265 µM) was 0.984, the relative viability (NCI-H2405; first compound 1.265 µM) was 0.923 and the relative viability (NCI-H2405; first compound 4 µM) was 1.05. It also gave a relative viability (NCI-H1993; first compound 0.04 µM) of 0.909, a relative viability (NCI-H1993; first compound 0.1265 µM) of 0.721 and a relative viability (NCI-H1993; first compound 0.4 µM) of 0.828. It also gave a relative viability (NCI-H1993; first compound 1.265 µM) of 0.755, a relative viability (NCI-H1993; first compound 4 µM) of 0.747 and a relative viability (NCI-H1563; first compound 0.04 µM) of 0.994. It also gave a relative viability (NCI-H1563; first compound 0.1265 µM) of 0.91, a relative viability (NCI-H1563; first compound 0.4 µM) of 1.12 and a relative viability (NCI-H1563; first compound 1.265 µM) of 0.945. The relative viability (NCI-H1563; first compound 4 µM) was 0.777, the relative viability (NCI-H647; first compound 0.04 µM) was 1.12 and the relative viability (NCI-H647; first compound 0.1265 µM) was 1.07. It also gave a relative viability (NCI-H647; first compound 0.4 µM) of 1.26, a relative viability (NCI-H647; first compound 1.265 µM) of 1.05 and a relative viability (NCI-H647; first compound 4 µM) of 1.04. It also gave a relative viability (LOU-NH91; first compound 0.04 µM) of 0.763, a relative viability (LOU-NH91; first compound 0.1265 µM) of 0.741 and a relative viability (LOU-NH91; first compound 0.4 µM) of 0.802. The relative viability (LOU-NH91; first compound 1.265 µM) was 0.689, the relative viability (LOU-NH91; first compound 4 µM) was 0.664 and the relative viability (NCI-H1793; first compound 0.04 µM) was 0.743. It also gave a relative viability (NCI-H1793; first compound 0.1265 µM) of 0.704, a relative viability (NCI-H1793; first compound 0.4 µM) of 1.05 and a relative viability (NCI-H1793; first compound 1.265 µM) of 0.64. It also gave a relative viability (NCI-H1793; first compound 4 µM) of 0.81.
